Legend:
[1] = test system: Thraustochytrium sp. ONC-T18; assay: Effects of different antibiotics on growth of ONC-T18 on ONC-T18-GM0 agar plates (Example 3); format: cell-based; set-up: sensitivity of ONC-T18 cells to zeocin: dose or concentration left out as unconfirmed
Method: Thraustochytrium sp. ONC-T18 was grown on agar plates (20 g agar per liter ONC-T18-GM0). One loop of inoculum of ONC-T18 was inoculated into 50 mL of liquid ONC-T18-GM0, and the culture was incubated in a shaker incubator at 25° C. at 250 rpm for 36 hours. Half a milliliter of the culture was transferred into a 1.5 mL tube and vortexed at full speed for 30 seconds to break down cell clusters, then diluted in 50 mL sterilized water. One hundred microliters of the resulting solution was spread onto each ONC-T18-GM0 medium plate. Each plate contained one of various antibiotics at one of various concentrations. Plates were incubated at 25° C. and emergence and development of colonies were observed daily.

[2] = test system: Thraustochytrium sp. ONC-T18; assay: Effects of zeocin and salinity on colony numbers and colony diameter of ONC-T18 (Example 4); format: cell-based; details: for colony numbers: 10 days; for colony numbers / colony growth rates (diameter in mm): mean of two plates
Method: One hundred μL of ONC-T18 cell suspension diluted at 1:500 from a 2-day culture were spread onto ONC-T18-GM0 plates containing various concentrations of antibiotic zeocin and sea salt. Inoculated plates were incubated in a 25° C. incubator for 10 days. The numbers of the colonies on each plate were counted. […] In plates containing 8.5 g/L sea salt without zeocin, only one colony was observed. In plates containing 18 g/L sea salt without zeocin, colony numbers were similar to that of plates containing 35 g/L sea salt without zeocin. […] Therefore, for this work, 18 g/L sea salt was used to make ONC-T18-GM0 for selection of ONC-T18 transformants transformed with constructs bearing a zeocin-resistant gene expression cassette.

[3] = test system: parental strain (the wild type strain) ONC-T18; assay: Zeocin sensitivity, spotted colonies on agar plates, parental strain (Example 8); format: cell-based, Thraustochytrium sp. ONC-T18; details: ONC-T18-GM0 agar plates, 18 g/L sea salt
Method: (§1) A very small amount of inoculum of zeocin-resistant strains that had been transferred three times via colony passages on zeocin/ONC-T18-GM0 agar plates (as well as their parental strain or the wild type strain) was picked from colonies using a 10 μL pipette tip and re-suspended in 50 μL sterilized water in a 200 μL PCR tube. One μL of the cell suspension was spotted on ONC-T18-GM0 agar plates containing 18 g/L sea salt (15 g/L agar) and zeocin at a concentration ranging from 0 to 5000 μg/mL (Invitrogen, CA, USA). The diameters of the spotted colonies were measured on day 1, day 3, day 5, day 7, and day 8.

[4] = test system: transformed ONC-T18 strains bearing the zeocin-resistance gene expression cassette; assay: Zeocin sensitivity, spotted colonies on agar plates, transformed strains (Example 8); format: cell-based, Thraustochytrium sp. ONC-T18; details: 5000 μg/mL zeocin
Method: as §1

[5] = test system: wild type ONC-T18 strains; assay: Growth on zeocin plates after six colony passages without zeocin, wild type (Example 12); format: cell-based, Thraustochytrium sp. ONC-T18; details: zeocin 200 μg/mL media
From the text: (§2) Transgene stability is important for certain applications of genetic engineering in industrial microbial strain improvement programs where microorganisms are used in pharmaceutical or industrial processes, and where product quantity and quality are paramount. We therefore carried out transgene stability estimate assays of transformed ONC-T18 strains. As for the growth rate assays described in Example 7, inocula of four strains of each transformation as well as their ancestor wild type strains were spotted on ONC-T18-GM0 agar plates in the absence of zeocin and incubated at 25° C. for seven days. (Each transformation had been performed using one of the five different plasmid constructs, each of which bears various zeocin-resistant gene expression cassettes driven by a combination of different promoters and terminators). Then, using the same method, strains were transferred on a new fresh ONC-T18-GM0 agar plate and incubated at 25° C. for 7 days; colony passages were carried out 6 times. Finally, strains were transferred back onto ONC-T18-GM0 agar plates either without or with zeocin at a concentration of 200 μg/mL media.

[6] = test system: transformed ONC-T18 strains; assay: Growth on zeocin plates after six colony passages without zeocin, transformed strains (Example 12); format: cell-based, Thraustochytrium sp. ONC-T18; details: zeocin 200 μg/mL media
From the text: as §2

[7] = test system: wild type strain of ONC-T18; assay: Zeocin as mutagenic agent on ONC-T18 agar plates (Example 13); format: cell-based, Thraustochytrium sp. ONC-T18
Method: The marine protist wild type strain of ONC-T18 was chosen as a model system to test if zeocin would be effective to induce mutagenesis in this strain. One full loop of the inocula of ONC-T18, growing in the agar plates containing ONC-T18-GM0 medium[5 g/L yeast extract, 5 g/L peptone, 10 g/L D(+)-glucose, 35 g/L artificial sea salt, 1.25 mg/L trace elements (5 g/L NaH2PO4.H2O, 3.15 g/L FeCl3.6H2O, 4.36 g/L Na2EDTA.2H2O, 0.6125 mg/L CuSO4.5H2O, 0.0597 g/L Na2MoO4.2H2O, 0.022 g/L ZnSO4.7H2O, 0.01 g/L CoCl2.6H2O, 0.18 g/L MnCl2.4H2O, 13 μg/L H2SeO3, 2.7 mg/L NiSO4.6H2O, 1.84 mg/L Na3VO4 and 1.94 mg/L K2CrO4), 1.25 mg/L vitamins (1 mg/L vitamin B12, 1 mg/L biotin, 0.20 g/L thiamine HCl) and 20 g agar per liter], was inoculated into 50 mL liquid ONC-T18-GM0 medium, and incubated in a shaker incubator at 25° C. at 250 rpm for 36 hours. Half a milliliter of culture was transferred into a 1.5 mL tube and vortexed at full speed for 30 seconds, and then diluted in 50 mL sterilized water. One hundred microliters of the diluted inocula were respectively spread on the agar plates containing zeocin at various concentrations (0, 10, 30, 50, and 100 μg/mL). Plates were incubated at 25° C. incubator. The emergence and development of the colonies were observed daily. […] Under these conditions, zeocin was effective within the range of at least 10-200 μg/mL; higher concentrations may well also be effective. For example, concentrations in the range of 200-500 μg/mL or higher could work. […] Under the particular conditions utilized in the present Example, zeocin worked best at 50 μg/mL.

[8] = cited from earlier work

In the case of `Cc1c(N)nc([C@H](CC(N)=O)NC[C@H](N)C(N)=O)nc1C(=O)N[C@H](C(=O)N[C@H](C)[C@@H](O)[C@H](C)C(=O)N[C@H](C(=O)NCCC1=N[C@@H](c2nc(C(=O)NCCCCN=C(N)N)cs2)CS1)[C@@H](C)O)[C@@H](O[C@@H]1O[C@@H](CO)[C@@H](O)[C@H](O)[C@@H]1O[C@H]1O[C@H](CO)[C@@H](O)[C@H](OC(N)=O)[C@@H]1O)c1cnc[nH]1` [Zeocin, phleomycin D1], the “sensitivity of ONC-T18 cells to zeocin” value [1] is reported as “highly sensitive”, the “effect on growth of ONC-T18 (summary in words)” value ([1]; ONC-T18-GM0 agar plates) is reported as “significantly inhibited the growth” and the “zeocin concentration that completely inhibited growth of ONC-T18” value ([2]; ONC-T18-GM0 agar plates containing 18 g/L sea salt) is reported as 30 µg/mL. For the same compound, the “zeocin concentration needed for complete inhibition of ONC-T18” value ([2]; ONC-T18-GM0 agar plates containing 35 g/L sea salt) was 100 µg/mL, the colony numbers ([2]; salt 5 g/L, zeocin 10 μg/mL) was 0 and the “colony growth rates (diameter in mm)” value ([2]; salt 5 g/L, zeocin 10 μg/mL) was 0 mm. The colony numbers ([2]; salt 5 g/L, zeocin 30 μg/mL) was 0, the “colony growth rates (diameter in mm)” value ([2]; salt 5 g/L, zeocin 30 μg/mL) was 0 mm and the colony numbers ([2]; salt 5 g/L, zeocin 50 μg/mL) was 0. For the same compound, the “colony growth rates (diameter in mm)” value ([2]; salt 5 g/L, zeocin 50 μg/mL) was 0 mm, the colony numbers ([2]; salt 5 g/L, zeocin 100 μg/mL) was 0 and the “colony growth rates (diameter in mm)” value ([2]; salt 5 g/L, zeocin 100 μg/mL) was 0 mm. For the same compound, the colony numbers ([2]; salt 8.5 g/L, zeocin 10 μg/mL) was 0, the “colony growth rates (diameter in mm)” value ([2]; salt 8.5 g/L, zeocin 10 μg/mL) was 0 mm and the colony numbers ([2]; salt 8.5 g/L, zeocin 30 μg/mL) was 0. For the same compound, the “colony growth rates (diameter in mm)” value ([2]; salt 8.5 g/L, zeocin 30 μg/mL) was 0 mm, the colony numbers ([2]; salt 8.5 g/L, zeocin 50 μg/mL) was 0 and the “colony growth rates (diameter in mm)” value ([2]; salt 8.5 g/L, zeocin 50 μg/mL) was 0 mm. The colony numbers ([2]; salt 8.5 g/L, zeocin 100 μg/mL) was 0, the “colony growth rates (diameter in mm)” value ([2]; salt 8.5 g/L, zeocin 100 μg/mL) was 0 mm and the colony numbers ([2]; salt 18 g/L, zeocin 10 μg/mL) was 11. For the same compound, the “colony growth rates (diameter in mm)” value ([2]; salt 18 g/L, zeocin 10 μg/mL) was 4.1 mm, the colony numbers ([2]; salt 18 g/L, zeocin 30 μg/mL) was 0 and the “colony growth rates (diameter in mm)” value ([2]; salt 18 g/L, zeocin 30 μg/mL) was 0 mm. The colony numbers ([2]; salt 18 g/L, zeocin 50 μg/mL) was 0, the “colony growth rates (diameter in mm)” value ([2]; salt 18 g/L, zeocin 50 μg/mL) was 0 mm and the colony numbers ([2]; salt 18 g/L, zeocin 100 μg/mL) was 0. The “colony growth rates (diameter in mm)” value ([2]; salt 18 g/L, zeocin 100 μg/mL) was 0 mm, the colony numbers ([2]; salt 35 g/L, zeocin 10 μg/mL) was 22.5 and the “colony growth rates (diameter in mm)” value ([2]; salt 35 g/L, zeocin 10 μg/mL) was 4.1 mm. For the same compound, the colony numbers ([2]; salt 35 g/L, zeocin 30 μg/mL) was 11, the “colony growth rates (diameter in mm)” value ([2]; salt 35 g/L, zeocin 30 μg/mL) was 1.9 mm and the colony numbers ([2]; salt 35 g/L, zeocin 50 μg/mL) was 5. The “colony growth rates (diameter in mm)” value ([2]; salt 35 g/L, zeocin 50 μg/mL) was 0.6 mm, the colony numbers ([2]; salt 35 g/L, zeocin 100 μg/mL) was 0 and the “colony growth rates (diameter in mm)” value ([2]; salt 35 g/L, zeocin 100 μg/mL) was 0 mm. The “zeocin concentration at which the parental strain grew” value [3] was no more than 30 µg/mL, the “growth of transformed strains” value ([4]; compared with 1000 μg/mL or less) was “most strains grew remarkably slower” and the “zeocin resistance of some transformant strains” value ([4]; e.g., FIG. 13 legend) was “highly resistant”. The “growth of wild type strains” value [5] was “none of the wild type strains were able to grow”, the “growth of transformed strains” value [6] was “only the transformed strains grew well” and the “colonies seen per plate” value ([7]; 50 μg/mL zeocin) was “Only a few of colonies were seen”. The “colony sectors with visible colony-morphology changes” value ([7]; 50 μg/mL zeocin) was “observed in some of the colonies”, the “colony numbers per plate” value ([7]; 10, 30, and 50 μg/mL zeocin) was “gradually reduced” and the “sizes of the colonies” value ([7]; 30 to 50 μg/mL zeocin, six days post inoculation) was “gradually decreased”. The “concentration at which zeocin worked best as mutagen” value ([7]; conditions of Example 13) was 50 µg/mL, the “concentration range in which zeocin was effective as mutagen” value ([7]; conditions of Example 13) was 10 to 200 µg/mL and the stability of zeocin ([8]; high salt concentrations) was “unstable at high salt concentrations”. The solubility of zeocin ([8]; water) was “water soluble”.
